One assay concerns TAFA4. In words: TAFA4 synthesis in normal human fibroblast culture supernatant, dot blot. The settings on record: for effect on the synthesis of TAFA4 (modulation of TAFA4 in the NHF supernatant): 72 hours of incubation, versus DMEM medium control set to 100%, valproic acid 0.025% and 0.05%, TGF-β 10 and 100 ng/ml, LPS 1 μg/ml; for doses with statistically significant induction of TAFA4 synthesis: NHF supernatant, 72 hours, Student test p<0.05, two doses tested. Type of assay: cell-based. How it is done:
Normal human fibroblasts (NHFs) have been used in this study (Lonza-Switzerland). The cells are seeded at 10,000 cells in 24-well plates in DMEM+1% Penicillin-streptomycin (P/S). After 72 hours of incubation at 37° C., 5% CO2, the supernatants and protein extracts (obtained from the cell layer) are recovered and stored at −80° C. Before assaying the TAFA4 protein, an evaluation of the toxicity of the compounds tested is performed using the MTT test. Only the concentrations which make it possible to obtain a viability greater than 80% are selected to be quantified by ELISA and dot blot. Dot blotting is an immunoenzymatic detection method for quantifying a protein in a sample after it has been deposited on a nitro-cellulose membrane in a well. Specific equipment (Biorad, France) is used with a nitrocellulose membrane. The device is subjected to a vacuum pressure which will make it possible to create the suctioning of the sample (supernatant or protein extract) and therefore, the binding of proteins to the nitrocellulose membrane. The equipment is placed at a height with respect to the vacuum pump, to respect the principle of gravity. The membrane is previously hydrated with 100 μl of TBS buffer (Tris base+NaCl diluted in water adjusted to pH 7.5) per well. This operation is repeated twice in order to optimise the hydration of the membrane for optimal binding of the proteins contained in the samples. The samples to be analysed (supernatants and protein extracts) and the different solutions of TAFA4 recombinant proteins at different concentrations of the TAFA4 standard range (0.78 to 100 ng/ml) are deposited in the plate (volume 100 μl/well used for the protein extracts and 500 μl/well-used for the supernatants) then the suction flow is activated. […] The presence of the TAFA4 protein on the membrane is conveyed by the formation of a grey to black spot depending on the intensity of the reaction and therefore on the quantity of protein. The membrane is read with the Fusion FX device (Vilber Lourmat) coupled with the VisionCapt software (Vilber Lourmat). The quantification of the TAFA4 protein in the samples tested is done with the VisionCapt software which makes it possible to measure the intensity of the various spots. The quantity of samples is then produced using the standard curve of the TAFA4 standard established with the recombinant protein The data have been collected from independent experiments performed in triplicate. Quantitative analyses are expressed in the form of mean±standard deviation. Statistical significance is determined by a Student test. […] The results are expressed as a percentage of TAFA4 expression by standardising the control to 100% (DMEM medium control). […]

Assay [1] concerns KO mice for TAFA4. The settings on record: UVC irradiation, intradermal injection post-irradiation; cited from earlier work.
The test system of assay [2] is pain/hypersensitivity felt locally in the skin. The conditions noted are these: mice, injection subcutaneously or at the level of the neurons present in the bone marrow; cited from earlier work.
The subject of assay [3] is KO mice for TAFA4. The settings on record: intradural injection; inflammatory pain agonist or partial lesion of the sciatic nerve; cited from earlier work.

Turning to TGF-β: TGF-β protein, 100-21, PEPROTECH, in the assay on TAFA4, the “effect on the synthesis of TAFA4 (modulation of TAFA4 in the NHF supernatant)” value is recorded as “induce the synthesis of TAFA4 in a dose-dependent manner” and the “doses with statistically significant induction of TAFA4 synthesis” value was 2 out of 2 doses.

As for `CCCC(CCC)C(=O)O` [Valproic acid, reference compound], in the assay with TAFA4, the “effect on the synthesis of TAFA4 (modulation of TAFA4 in the NHF supernatant)” value is given as “induce the synthesis of TAFA4 in a dose-dependent manner” and the “doses with statistically significant induction of TAFA4 synthesis” value is recorded as 1 out of 2 doses.

Take “human TAFA4 protein: TAFA Chemokine Like Family Member 4 protein, a neurokine; injected recombinant protein in literature mouse studies”: the “effect on 35-day post-irradiation inflammation resolution defect” value with KO mice for TAFA4 [1] is recorded as “can be compensated”. In assay [2], the “duration of the reduction of pain/hypersensitivity post-injection” value is reported as “up to 4 hours” and the “effect on pain/hypersensitivity felt locally in the skin” value is given as “reduces the pain/hypersensitivity felt locally in the skin”. Also, the “effect on increased hypersensitivity to pain of TAFA4 KO mice” value with KO mice for TAFA4 [3] was “compensates for the condition of TAFA4 KO mice”.

Source of the values: patent US20260235581A1, “METHOD FOR THE SELECTION OF AN ECOBIOLOGICAL COMPOUND CAPABLE OF INCREASING THE SKIN TOLERANCE THRESHOLD” (NAOS INSTITUTE OF LIFE SCIENCE, priority 2023, published 2026).
